Test results published in US20080045605A1, “Image Quality in the Eye” (priority 2004, published 2008).

System: human eye
Assay: higher-order wavefront aberrations (rms) measured with a wavefront analyzer in subjects treated for 6 months
Assay type: in vivo
Conditions: human subjects treated for 6 months; 20 mg/day zeaxanthin (Z), 20 mg/day lutein (L), or 10 mg lutein+10 mg zeaxanthin per day (C, P-C); versus placebo; FIG. 1
Excerpt: The wavefront aberration function is a way of quantifying the imperfections of the optics of the eye that cause degradation of retinal image quality. The “ideal” wavefront is generated when a “point” on the retina is imaged through the optics of the eye as a plane and flat surface just outside the eye. This means that all the rays emerging from the eye form a parallel bundle and are perpendicular to this plane. The “real” wavefront surface is not a perfect two-dimensional plane and reflects the aberrations present in the optical system. It is usually represented mathematically by a series of terms known as Zernike polynomials. A knowledge of the coefficients of the Zernike polynomials provides a complete description of the wavefront surface. In order to obtain one single number that describes the quality of the imaging system (in this case the human eye) the root mean square (rms) deviation is calculated by computing the root of the mean of the squares of the actual deviations from the ideal plane. The rms value is equivalent to a standard deviation, but the two functions compared are 2D surfaces (i.e., the ideal wavefront and the actual wavefront). The wavefront aberrations are measured with a wavefront analyzer (see, e.g., J. Refract. Surg. 2001; 17(5), S608-S612). […]

SMILES	higher-order wavefront aberrations in the human eye
CC1=C[C@H](O)CC(C)(C)[C@H]1/C=C/C(C)=C/C=C/C(C)=C/C=C/C=C(C)/C=C/C=C(C)/C=C/C1=C(C)C[C@@H](O)CC1(C)C [lutein]	reduction of higher-order wavefront aberrations
CC1=C(/C=C/C(C)=C/C=C/C(C)=C/C=C/C=C(C)/C=C/C=C(C)/C=C/C2=C(C)C[C@@H](O)CC2(C)C)C(C)(C)C[C@H](O)C1 [zeaxanthin]	reduction of higher-order wavefront aberrations
